Each structure is given as a SMILES string. Where two headings read alike, the source gives them in different places.

The subject of one assay is NMDA-induced death. Nature of the assay: NMDA test (25 mg/kg i.v.), prevention of NMDA-induced death (neuroprotective efficacy). It counts as in vivo, male NMRI mice. To be noted: Mus musculus, po, NMDA 25 mg/kg i.v.; for ED50: 1 h, dose protecting 50% of animals against NMDA-induced death one hour after application; for responders at 25 mg/kg: 25 mg/kg p.o. 1 h before test; for responders at 100 mg/kg: 100 mg/kg p.o. 1 h before test; for responders at 50 mg/kg: 50 mg/kg p.o. 1 h before test; for responders at 20 mg/kg: 20 mg/kg p.o. 1 h before test. The method, then:
(§1) In order to determine the neuroprotective and anticonvulsive activity of the compounds in accordance with the invention of the general formula I, two slightly different methods were employed as follows: […]
(§2) 1. In order to determine the neuroprotective efficacy NMDA at a rate of 25 mg/kg/10 ml was administered intravenously to male NMRI mice with a body weight of 20 to 25 g. As a consequence of this application the animals suffer clonic and partly tonic convulsions, which lead to death. As a criterion for the efficacy of the investigated compounds prevention of death is used.
(§3) All animals used in the investigations had free access to food and water prior to the experiments. The test and reference substances were all administered as a suspension in 0.2% agar or water, partly by the intermediary of solution promoters such as for instance PEG-400, perorally using an esophageal probe. Control animals received the same volumes of the solvent with optional solution promoters. One hour after the application of the substance NMDA was administered intravenously and the animals observed for the occurrence of convulsions.
In table 1 the results of the tests (NMDA 25 mg i.v.) performed in accordance with method 1 are compiled with dosages of 5-100 mg of the compounds in accordance with the invention per kg of body weight as compared with known NMDA-antagonists. As a percentage efficacy the percentage of surviving animals is used.
(§4) The determination of the ED50 values was performed in accordance with the method described in Lichtfield and Wilcoxon, J. Pharmacol. exp. Therapeut. 96, 99 (1949) in each case with 4 to 5 groups of 10 animals per dosage rate.

Assay [1] relates to NMDA-induced tonic convulsions. Nature of the assay: NMDA test (40 mg/kg i.v.), protection against tonic convulsions (antiepileptic efficacy). It counts as in vivo, male NMRI mice. As to conditions: Mus musculus, po; for responders at 25 mg/kg: 25 mg/kg p.o. 1 h before test. The method, then:
as §1, §2
2. In order to ascertain the antiepileptic efficacy the same method was utilized with an NMDA dosage of 40 mg/kg/10 ml i.v. This higher NMDA dosage led in the case of all animals to the occurrence of tonic convulsions.
as §3
In table 2 the results of the tests (NMDA 40 mg i.v.) performed in accordance with method 2 are compiled with dosages of 5-25 mg of the compounds in accordance with the invention per kg of body weight in comparison with known anticonvulsants and antiepileptics. As a percentage efficacy the percentage of animals is used which in the test were protected against the occurrence of tonic convulsions.
as §4

Assay [2] concerns ovalbumin-induced anaphylactic paw edema. In words: Passive rat paw anaphylaxy (inhibition of edema volume; antiallergic and anti-inflammatory). It counts as in vivo, male Sprague-Dawley rats. To be noted: Rattus norvegicus, po; 25 mg/kg p.o. 1 h before test; read-out: Protective action (percentage inhibition of edema volume). On the procedure: The determination of the antiallergic and anti-inflammatory properties of the compounds in accordance with the invention was using a passive rat paw anaphylaxy model.
Male Sprague-Dawley rats were utilized for all tests. The animals were kept under standardized environmental conditions with free access to food and water. For sensitization to the antigen 100 μl of a mouse antiserum to ovalbumin was injected sublplantarly into the left rear paw. […] The opposite paw was for control injected subplantarly only with 100 μl of the solvent (sterile physiological NaCl solution). Overnight the investigated animals were deprived of food but had water ad lib.
Per group in all tests between 6 and 8 animals were used. One hour later the anaphylactic reaction was caused by the intravenous injection of 10 mg/10 ml/kg ovalbumin in physiological NaCl solution. […] The edema volume was calculated from the difference between the values of the two paws. The antiallergic action is in this case expressed as a percentage inhibition of the edema volume of the animals in the test group as compared with control groups undergoing parallel investigation. […] The determination of the ED50 values was performed by linear regression after log transformation of the administered doses, at least three dosage rates being employed.

Setting [3] is: read-out: Protective action (percentage of surviving animals).
The mark [4] stands for this setting: NMDA 40 mg/kg i.v., read-out: Protective action (percentage of animals protected against tonic convulsions).
The mark [5] stands for this setting: 50 mg/kg p.o. 1 h before test, NMDA 40 mg/kg i.v., read-out: Protective action (percentage of animals protected against tonic convulsions).
Where [6] appears, read: 1 h, read-out: Protective action (percentage of animals protected against tonic convulsions).

In general, ED50 refers to the dose at which the effect has come halfway, by size or by number of responders. For `COc1cc2oc(=O)ccc2cc1OCC(O)CN1CCN(c2ccccc2)CC1` (racemic) [Example 18, (±)-7-methoxy-6-[2-hydroxy-3-(4-phenyl-1-piperazinyl)propoxy]-2H-1-benzopyran-2-one], the ED50 with NMDA-induced death was found to be 6.4 mg/kg. The responders at 25 mg/kg (in the assay with NMDA-induced death (setting [3]); in assay [1] (setting [4])) was 100% in each case. The inhibition in vivo at 25 mg/kg in assay [2] was 56%.
In the assay on NMDA-induced death, `COc1cc2oc(=O)ccc2cc1OCC(O)CN1CCN(c2cccc(Cl)c2)CC1` (racemic) [Example 19, (±)-6-{3-[4-(3-chlorophenyl)-1-piperazinyl]-2-hydroxypropoxy}-7-methoxy-2H-1-benzopyran-2-one] displayed a 50% effective dose (ED50) of 8.3 mg/kg. Also, the values for the responders at 25 mg/kg (in the assay with NMDA-induced death (setting [3]); in assay [1] (setting [4])) were 100% and 87.5%, respectively. The inhibition in vivo at 25 mg/kg in assay [2] was determined as 32%.
Regarding `COc1cc2ccc(=O)oc2cc1OCC(O)CN1CCC(c2ccccc2)CC1` (racemic) [Example 23, (±)-7-[2-hydroxy-3-(4-phenyl-1-piperidinyl)-propoxy]-6-methoxy-2H-1-benzopyran-2-one], in the assay with NMDA-induced death, the ED50 was 28.5 mg/kg. The responders at 100 mg/kg with NMDA-induced death (setting [3]) turned out to be 100%. Moreover, the responders at 5 mg/kg in assay [1] (5 mg/kg p.o. 1 h before test, NMDA 40 mg/kg i.v., read-out: Protective action (percentage of animals protected against tonic convulsions)) was 12.5%.
On to `COc1cc2oc(=O)ccc2cc1OCCCN1CCN(c2cccc(C(F)(F)F)c2)CC1` [Example 6, 7-methoxy-6-{3-[4-(3-trifluoromethylphenyl)-1-piperazinyl]propoxy}-2H-1-benzopyran-2-one], for which the ED50 with NMDA-induced death is 13.5 mg/kg. In addition, the responders at 25 mg/kg in the assay on NMDA-induced death (setting [3]) is 87.5%; in assay [1] (setting [4]) it was 0%.
In the case of `COc1cc2oc(=O)cc(C)c2cc1OCCCN1CCC(c2ccccc2)CC1` [Example 27, 7-methoxy-4-methyl-6-[3-(4-phenyl-1-piperidinyl)propoxy]-2H-1-benzopyran-2-one], the responders at 25 mg/kg in the assay with NMDA-induced death (setting [3]) is 50%. The inhibition in vivo at 25 mg/kg in assay [2] was determined as 40%.
Taken in the same sequence, the figures for `COc1cc2oc(=O)c(C)c(C)c2cc1OCCCN1CCN(c2ccccc2)CC1` [Example 28, 7-methoxy-3,4-dimethyl-6-[3-(4-phenyl-1-piperazinyl)propoxy]-2H-1-benzopyran-2-one] were 87.5% and 72%.
Taken in the same sequence, the figures for `COc1cc2oc(=O)cc(-c3ccccc3)c2cc1OCCCN1CCN(c2ccccc2)CC1` [Example 39, 7-methoxy-4-phenyl-6-[3-(4-phenyl-1-piperazinyl)propoxy]-2H-1-benzopyran-2-one] were 62.5% and 26%.
With `COc1cc2oc(=O)cc(-c3ccccc3)c2cc1OCCCN1CCC(c2ccccc2)CC1` [Example 40, 7-methoxy-4-phenyl-6-[3-(4-phenyl-1-piperidinyl)propoxy]-2H-1-benzopyran-2-one], in the assay on NMDA-induced death (setting [3]), the responders at 100 mg/kg amounted to 37.5%. Also, in assay [2], the inhibition in vivo at 25 mg/kg was 27%.
For `COc1cc2oc(=O)c3c(c2cc1OCCCN1CCN(c2ccccc2)CC1)CCCC3` [Example 42, 7,8,9,10-tetrahydro-3-methoxy-2-[3-(4-phenyl-1-piperazinyl)propoxy]-6H-dibenzo[b,d]pyran-6-one], the responders at 25 mg/kg in the assay with NMDA-induced death (setting [3]) amounted to 100%. Also, in assay [2], the inhibition in vivo at 25 mg/kg was 39%.
Turning to `COc1cc2oc(=O)c3c(c2cc1OCCCN1CCN(c2ccccc2)CC1)CCC3` [Example 45, 2,3-dihydro-7-methoxy-8-[3-(4-phenyl-1-piperazinyl)propoxy]cyclopenta[c][1]benzopyran-4(1H)-one], the 50% effect level with NMDA-induced death (ED50) was put at a dose of 1.2 mg/kg. Besides, the responders at 25 mg/kg in the assay with NMDA-induced death (setting [3]) turned out to be 100%. Further, the inhibition in vivo at 25 mg/kg in assay [2] was 69%.
Compound `COc1cc2oc(=O)c3c(c2cc1OCCCCN1CCN(c2ccccc2)CC1)CCC3` [Example 46, 2,3-dihydro-7-methoxy-8-[4-(4-phenyl-1-piperazinyl)butyloxy]cyclopenta[c][1]benzopyran-4(1H)-one] had an ED50 in the assay on NMDA-induced death of 3.9 mg/kg. Moreover, the responders at 25 mg/kg in the assay with NMDA-induced death (setting [3]) was 100%. In addition, the inhibition in vivo at 25 mg/kg in assay [2] is 35%.
In the assay on NMDA-induced death, `COc1cc2oc(=O)c3c(c2cc1OCCN1CCC(c2ccccc2)CC1)CCC3` [Example 48, 2,3-dihydro-7-methoxy-8-[2-(4-phenyl-1-piperidinyl)ethoxy]cyclopenta[c][1]benzopyran-4(1H)-one] had an ED50 of 4 mg/kg. The responders at 5 mg/kg with NMDA-induced death (5 mg/kg p.o. 1 h before test, read-out: Protective action (percentage of surviving animals)) is 100%. Also, the inhibition in vivo at 25 mg/kg in assay [2] was 35%.
In the case of `COc1cc2oc(=O)c3c(c2cc1OCCCN1CCN(c2ccc(F)cc2)CC1)CCC3` [Example 52, 8-{3-[4-(4-fluorophenyl)-1-piperazinyl]propoxy}-2,3-dihydro-7-methoxy-cyclopenta[c][1]benzopyran-4(1H)-one], the ED50 in the assay with NMDA-induced death is 1.2 mg/kg. Further, the responders at 25 mg/kg in the assay on NMDA-induced death (setting [3]) came to 100%. For the same compound, in assay [2], the inhibition in vivo at 25 mg/kg stood at 74%.
Consider `NC(=O)N1c2ccccc2C=Cc2ccccc21` [carbamazepin], for which, in assay [1] (setting [5]), the responders at 50 mg/kg came to 75%.
Consider `COc1ccc2c(c1)[C@]13CCCC[C@@H]1[C@H](C2)N(C)CC3` [dextromethorphan, reference compound], for which the ED50 in the assay on NMDA-induced death worked out at 66.7 mg/kg; in assay [1] (1 h), 58 mg/kg. For the same compound, the responders at 50 mg/kg with NMDA-induced death (setting [3]) is 50%. In addition, the responders at 100 mg/kg in assay [1] (setting [6]) amounted to 100%.
As for `CN1C(=O)CN=C(c2ccccc2)c2cc(Cl)ccc21` [diazepam], the responders at 5 mg/kg in assay [1] (setting [6]) was found to be 25%.
Take `O=C1NC(=O)C(c2ccccc2)(c2ccccc2)N1` [diphenylhydantoin]: in assay [1] (setting [5]), the responders at 50 mg/kg worked out at 50%.
On to `Fc1ccc(C(c2ccc(F)cc2)N2CCN(C/C=C/c3ccccc3)CC2)cc1` [flunarizin, reference compound], for which it took a dose of 22.8 mg/kg to reach the 50% effect level in the assay on NMDA-induced death (ED50). In addition, the responders at 50 mg/kg (in the assay with NMDA-induced death (setting [3]); in assay [1] (setting [5])) was 100% throughout.
Take `COCCOC(=O)C1=C(C)NC(C)=C(C(=O)OC(C)C)C1c1cccc([N+](=O)[O-])c1` (stereo not shown) [nimodipin, reference compound]: the median effective dose (ED50) came out at 18.5 mg/kg in the assay with NMDA-induced death and 25.4 mg/kg in assay [1] (1 h, dose protecting 50% of animals against tonic convulsions one hour after application, NMDA 40 mg/kg i.v., read-out: ED50). Moreover, the responders at 20 mg/kg in the assay with NMDA-induced death (setting [3]) came out at 87.5%; in assay [1] (20 mg/kg p.o. 1 h before test, NMDA 40 mg/kg i.v., read-out: Protective action (percentage of animals protected against tonic convulsions)), 25%.
Take `CCC1(c2ccccc2)C(=O)NC(=O)NC1=O` [phenobarbital]: the responders at 50 mg/kg in assay [1] (setting [6]) turned out to be 62.5%.
Consider `CCCC(CCC)C(=O)O` [valproinic acid], for which the responders at 250 mg/kg in assay [1] (setting [6]) worked out at 87.5%.
Compound `COc1ccc(CCN(C)CCCC(C#N)(c2ccc(OC)c(OC)c2)C(C)C)cc1OC` (stereo not shown) [verapamil, reference compound] registered an ED50 in the assay on NMDA-induced death of 17.3 mg/kg. For the same compound, the responders at 20 mg/kg with NMDA-induced death (setting [3]) came to 87.5%. In assay [1] (setting [6]), the responders at 50 mg/kg is 50%.

Values taken from patent US5428038A, “Benzopyranones, a method for producing them and uses therefor” (Dr. Willmar Schwabe GmbH & Co., priority 1991, dated 1995).
